Consider 2 compounds from US11744814B2, “Methods and pharmaceutical preparations for elevating blood hemoglobin and oxygen saturation levels with hydroxycitric acid” (GLYKON TECHNOLOGIES GROUP, LLC, priority 2020, dated 2023).

Structures are written as SMILES.

Experiment [1] has as its system intestinal alpha-glucosidase. As to conditions: background statement, in vitro; cited from earlier work.
Another experiment has as its target T1, pancreatic alpha-amylase (Homo sapiens, UniProt P04746).
T1 sequence (P04746 16-511): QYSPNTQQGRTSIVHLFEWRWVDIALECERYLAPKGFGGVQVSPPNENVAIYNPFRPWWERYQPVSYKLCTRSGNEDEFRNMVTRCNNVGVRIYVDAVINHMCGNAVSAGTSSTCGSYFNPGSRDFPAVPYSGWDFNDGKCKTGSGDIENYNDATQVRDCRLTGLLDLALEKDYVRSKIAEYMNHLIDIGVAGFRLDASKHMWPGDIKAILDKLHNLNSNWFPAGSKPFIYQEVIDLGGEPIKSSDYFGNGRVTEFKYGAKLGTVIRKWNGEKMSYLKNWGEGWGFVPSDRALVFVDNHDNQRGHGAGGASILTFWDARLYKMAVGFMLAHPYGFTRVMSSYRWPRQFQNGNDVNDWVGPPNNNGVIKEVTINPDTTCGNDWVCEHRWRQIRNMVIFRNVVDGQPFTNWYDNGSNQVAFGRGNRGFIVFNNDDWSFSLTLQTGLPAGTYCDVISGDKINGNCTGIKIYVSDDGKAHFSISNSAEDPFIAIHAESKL
Particulars: background statement, in vitro; cited from earlier work.

The nature of experiment [2]: fNIRS measurement of blood hemoglobin and oxygen saturation after the Example 1 formulation. Type of experiment: in vivo, human. As to conditions: conclusion over the examples, HCA administration. On the procedure:
Subjects 1-4 were orally administered the formulation of Example 1. The Subjects were given either one or two administrations of 8.33 ml of the aqueous formulation of Example 1 on an empty stomach, i.e. wherein with each 8.33 ml the subject received 2,500 mg of the potassium-magnesium (−)-hydroxycitric acid salt, corresponding to 1745 mg of (−)-hydroxycitric acid.
fNIRS testing (functional Near Infrared Spectroscopy) was used to measure blood hemoglobin and oxygen saturation. fNIRS can be used to determine real-time peripheral and cerebral hemodynamic responses. For example, relative changes in HbR (deoxygen saturation), HbO (oxygen saturation), and HbT (total hemoglobin concentration), etc. can be determined via application of Modified Beer Lambert Law. HbR, Hb=deoxygen saturation (shown as the thinnest and bottom dashed line in FIG. 1) HbO, HbO2=oxygen saturation (shown as the medium-thickness and middle line in FIG. 1) HbT=total hemoglobin concentration (shown as the darkest, thickest and top line in FIG. 1). On the graphs, time is in seconds.

In another experiment the target is T2, ATP citrate lyase (Homo sapiens, UniProt P53396).
T2 sequence (P53396 1-1101): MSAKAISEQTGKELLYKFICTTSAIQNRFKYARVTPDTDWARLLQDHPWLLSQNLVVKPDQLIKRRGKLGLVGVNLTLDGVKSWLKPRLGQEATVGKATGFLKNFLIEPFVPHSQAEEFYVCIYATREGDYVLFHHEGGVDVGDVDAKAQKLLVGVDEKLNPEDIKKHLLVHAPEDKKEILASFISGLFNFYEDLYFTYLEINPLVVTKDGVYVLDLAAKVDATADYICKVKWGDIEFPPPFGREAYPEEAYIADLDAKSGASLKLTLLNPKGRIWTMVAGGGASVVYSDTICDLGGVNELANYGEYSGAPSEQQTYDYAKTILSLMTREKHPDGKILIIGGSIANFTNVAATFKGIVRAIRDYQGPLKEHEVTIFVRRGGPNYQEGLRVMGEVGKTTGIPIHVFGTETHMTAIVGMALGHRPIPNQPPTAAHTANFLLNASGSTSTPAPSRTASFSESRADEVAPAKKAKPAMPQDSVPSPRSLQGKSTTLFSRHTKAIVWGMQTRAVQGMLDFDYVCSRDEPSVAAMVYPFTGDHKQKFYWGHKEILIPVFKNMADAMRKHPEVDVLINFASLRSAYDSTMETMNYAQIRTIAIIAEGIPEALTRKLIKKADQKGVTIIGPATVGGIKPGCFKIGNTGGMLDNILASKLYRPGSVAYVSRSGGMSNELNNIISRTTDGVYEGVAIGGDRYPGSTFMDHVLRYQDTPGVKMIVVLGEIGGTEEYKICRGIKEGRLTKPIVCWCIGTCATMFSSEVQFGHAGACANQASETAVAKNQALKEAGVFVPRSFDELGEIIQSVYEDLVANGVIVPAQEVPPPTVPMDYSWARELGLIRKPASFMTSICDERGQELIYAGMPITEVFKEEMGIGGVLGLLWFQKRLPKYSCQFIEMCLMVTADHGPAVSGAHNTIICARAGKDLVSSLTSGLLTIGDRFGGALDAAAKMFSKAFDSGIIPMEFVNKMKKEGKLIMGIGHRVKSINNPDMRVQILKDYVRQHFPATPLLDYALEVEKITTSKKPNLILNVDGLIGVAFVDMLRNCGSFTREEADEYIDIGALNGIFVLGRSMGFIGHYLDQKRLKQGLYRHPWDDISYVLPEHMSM
As to conditions: background statement; cited from earlier work.

Experiment [3] in a line: Blood levels of biomolecules before and 90 minutes after the Example 1 formulation. Type of experiment: in vivo, human. As to conditions: conclusion over the examples, HCA administration. On the procedure: Subject 5 was a person, weighing approximately 285 pounds and with a normal fasting blood sugar level of 115-120. First, blood was drawn from Subject 5 and levels of various biomolecules were measured. Next, Subject 5 was administered 16.66 ml of the Example 1 formulation on an empty stomach, i.e. wherein with each 16.66 ml the subject received 5,000 mg of the potassium-magnesium (−)-hydroxycitric acid salt, corresponding to 3490 mg of (−)-hydroxycitric acid. 90 minutes after the administration, blood was drawn from Subject 5 and levels of the various biomolecules were remeasured.
Subject 6 was administered 16.66 ml of the Example 1 formulation on an empty stomach, i.e. wherein with each 16.66 ml the subject received 5,000 mg of the potassium-magnesium (−)-hydroxycitric acid salt, corresponding to 3490 mg of (−)-hydroxycitric acid. 90 minutes after the administration, blood was drawn from Subject 6 and levels of the various biomolecules were remeasured.

As for `O=C(O)C[C@](O)(C(=O)O)[C@H](O)C(=O)O` [(2S,3R)-HCA], in experiment [1], the “inhibition of intestinal alpha-glucosidase” value is reported as “inhibits”. For the same compound, the “inhibition of pancreatic alpha-amylase” value on pancreatic alpha-amylase is listed as “inhibits”.

On to `O=C(O)CC(O)(C(=O)O)C(O)C(=O)O` (stereo not drawn) [HCA, 1,2-dihydroxypropane-1,2,3-tricarboxylic acid], for which, in experiment [2], the blood hemoglobin result is “increased” and the oxygen saturation entry was “increased”. In addition, at ATP citrate lyase, the “inhibition of ATP citrate lyase” value is on record as “competitive inhibitor”. Besides, in experiment [3], the cortisol result is reported as “decreased”, the levels of ketones entry is recorded as “relatively stable or slightly lower” and the triglycerides result is given as “decreased”. Moreover, in experiment [3] (in some cases transient), the glucose entry is “increased”.
